Reference: patent US9149475B2, “Protein kinase C inhibitors and uses thereof” (Rigel Pharmaceuticals, Inc., priority 2009, dated 2015)

System: Human primary T cells
Test: IL-2 ELISA, human primary T cell, anti-CD3+CD28+ (whole cell assay)
Type: cell-based
Details: Homo sapiens, T-cell, 24 h, human primary T cells stimulated with anti-CD3 + anti-CD28, 24 hours
Method in brief: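 PBMC-derived T cells, pre-expanded on αCD3/αCD28 with IL-2 and then washed free of IL-2, were preincubated with compound for 1 hr at 37° C (100,000 cells/well). They were then stimulated on 1 μg/ml αCD3 plus 5 μg/ml αCD28 for 24 h, and supernatant IL-2 was measured by ELISA. The counter-assay used 0.5 ng/ml PMA plus 0.1 μM ionomycin instead.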

SMILES | IC50 [nM]
CN1C(C)(C)CC(Nc2nc(Nc3ccc(OC4CCOCC4)c(OC(F)F)c3)ncc2F)CC1(C)C [III-22, N2-(3-(difluoromethoxy)-4-(tetrahydro-2H-pyran-4-yloxy)phenyl)-5-fluoro-N4-(1,2,2,6,6-pentamethylpiperidin-4-yl)pyrimidine-2,4-diamine] | < 250
CC1(C)CC(Nc2nc(Nc3ccc(OC4CCOCC4)c(OC(F)F)c3)ncc2F)CC(C)(C)N1 [III-23, N2-(3-(difluoromethoxy)-4-(tetrahydro-2H-pyran-4-yloxy)phenyl)-5-fluoro-N4-(2,2,6,6-tetramethylpiperidin-4-yl)pyrimidine-2,4-diamine] | 250 to 500
CN1C(C)(C)CC(Nc2nc(Nc3ccc(OC4CCOCC4)c(F)c3)ncc2F)CC1(C)C [III-24, 5-fluoro-N2-(3-fluoro-4-(tetrahydro-2H-pyran-4-yloxy)phenyl)-N4-(1,2,2,6,6-pentamethylpiperidin-4-yl)pyrimidine-2,4-diamine] | 500 to 1000
CN1C(C)(C)CC(Nc2nc(Nc3cc(F)c(OC4CCOCC4)c(F)c3)ncc2F)CC1(C)C [III-25, N2-(3,5-difluoro-4-(tetrahydro-2H-pyran-4-yloxy)phenyl)-5-fluoro-N4-(1,2,2,6,6-pentamethylpiperidin-4-yl)pyrimidine-2,4-diamine] | 500 to 1000
CC1(C)CC(Nc2nc(Nc3cc(F)c(OC4CCOCC4)c(F)c3)ncc2F)CC(C)(C)N1 [III-26, N2-(3,5-difluoro-4-(tetrahydro-2H-pyran-4-yloxy)phenyl)-5-fluoro-N4-(2,2,6,6-tetramethylpiperidin-4-yl)pyrimidine-2,4-diamine] | 500 to 1000
CN1C(C)(C)CC(Nc2nc(Nc3ccc(OC4CCNCC4)c(OC(F)F)c3)ncc2F)CC1(C)C [III-27, N2-(3-(difluoromethoxy)-4-(piperidin-4-yloxy)phenyl)-5-fluoro-N4-(1,2,2,6,6-pentamethylpiperidin-4-yl)pyrimidine-2,4-diamine] | 250 to 500
CC1(C)CC(Nc2nc(Nc3ccc(OC4CCNCC4)c(OC(F)F)c3)ncc2F)CC(C)(C)N1 [III-28, N2-(3-(difluoromethoxy)-4-(piperidin-4-yloxy)phenyl)-5-fluoro-N4-(2,2,6,6-tetramethylpiperidin-4-yl)pyrimidine-2,4-diamine] | > 1000
CN1C(C)(C)CC(Nc2nc(Nc3ccc(OC4CCS(=O)(=O)CC4)c(F)c3)ncc2F)CC1(C)C [III-29, N2-[4-(1,1-Dioxo-hexahydro-1λ6-thiopyran-4-yloxy)-3-fluoro-phenyl]-5-fluoro-N4-(1,2,2,6,6-pentamethyl-piperidin-4-yl)-pyrimidine-2,4-diamine] | > 1000
CC1(C)CC(Nc2nc(Nc3ccc(OC4CCS(=O)(=O)CC4)c(OC(F)F)c3)ncc2F)CC(C)(C)N1 [III-32, N2-[3-Difluoromethoxy-4-(1,1-dioxo-hexahydro-1λ6-thiopyran-4-yloxy)-phenyl]-5-fluoro-N4-(2,2,6,6-tetramethyl-piperidin-4-yl)-pyrimidine-2,4-diamine] | > 1000
CN1C(C)(C)CC(Nc2nc(Nc3ccc(OC4CCN(CC(N)=O)CC4)c(F)c3)ncc2F)CC1(C)C [III-33, 2-(4-(2-Fluoro-4-(5-fluoro-4-(1,2,2,6,6-pentamethylpiperidin-4-ylamino)pyrimidin-2-ylamino)phenoxy)piperidin-1-yl)acetamide] | > 1000
CC1(C)CC(Nc2nc(Nc3ccc(OC4CCN(CC(N)=O)CC4)c(F)c3)ncc2F)CC(C)(C)N1 [III-34, 2-(4-(2-Fluoro-4-(5-fluoro-4-(2,2,6,6-tetramethylpiperidin-4-ylamino)pyrimidin-2-ylamino)phenoxy)piperidin-1-yl)acetamide] | > 1000
CN1C(C)(C)CC(Nc2nc(Nc3ccc(OC4CCN(CC(N)=O)CC4)c(OC(F)F)c3)ncc2F)CC1(C)C [III-35, 2-(4-(2-(Difluoromethoxy)-4-(5-fluoro-4-(1,2,2,6,6-pentamethylpiperidin-4-ylamino)pyrimidin-2-ylamino)phenoxy)piperidin-1-yl)acetamide] | 250 to 500
